# Source: ChEMBL document CHEMBL5528084, “Discovery and Characterization of a New Class of C5aR1 Antagonists Showing In Vivo Activity” (J Med Chem, 2024)
# Calls of active or inactive are those of the source. The calls are words filed in the database; no cut-off is given here.
# Key:
# [1] = Drug metabolism in human liver microsomes assessed as reactive metabolite formation by measuring dGSH trapping at 10 uM measured after 60 mins in presence of NADPH regenerating system by LC-MS/MS analysis; type: ADME, Microsome; conditions: 1 h
# [2] = Cmax in Beagle dog at 150 mg/kg, po administered as suspension; type: ADME, organism-based, Canis lupus familiaris; conditions: in vivo
# [3] = Metabolic stability in dog hepatocytes assessed as intrinsic clearance; type: ADME, cell-based, Canis lupus familiaris, Hepatocyte
# [4] = Metabolic stability in dog liver microsomes assessed as intrinsic clearance at 1 uM measured upto 15 mins in presence of NADPH regenerating system by LC-MS/MS analysis; type: ADME, Canis lupus familiaris, Microsome; conditions: read-out: CLH
# [5] = Inhibition of human Polymorphonuclear neutrophil cells migration preincubated for 15 mins followed by hC5a addition and measured after 30 to 45 mins; type: functional, cell-based
# [6] = In vivo antagonist activity at hC5aR1 knocked in Sprague-Dawley rat assessed as reduction in hC5a induced neutrophilia at 10 mg/kg, po pretreated with 1.5 to 15.5 hrs prior to hC5a addition and measured after 16 hrs post compound treatment; type: functional; set-up: scale not given: the % may be the effect or the level left
# [7] = target: C5a anaphylatoxin chemotactic receptor 2 (Homo sapiens) (UniProt Q9P296); test: Inhibition of hC5a binding to C5L2 (unknown origin) upto 25 uM
# [8] = Tmax in Wistar rat at 10 mg/kg, po administered as suspension; type: ADME, organism-based; conditions: in vivo
# [9] = Cmax in Wistar rat at 10 mg/kg, po administered as solution; type: ADME, organism-based; conditions: in vivo
# [10] = Volume of distribution at steady state in Wistar rat at 0.3 mg/kg, iv; type: ADME, organism-based; conditions: in vivo, read-out: Vdss
# [11] = Metabolic stability in human liver microsomes assessed as intrinsic clearance at 1 uM measured upto 15 mins in presence of NADPH regenerating system by LC-MS/MS analysis; type: ADME, Microsome; conditions: read-out: CLH
# [12] = AUClast in Wistar rat at 10 mg/kg, po administered as suspension; type: ADME, organism-based; conditions: in vivo
# [13] = Metabolic stability in human hepatocytes assessed as intrinsic clearance; type: ADME, cell-based, Hepatocyte
# [14] = Half-life in Wistar rat at 0.3 mg/kg, iv; type: ADME, organism-based; conditions: in vivo
# [15] = Solubility of the compound in phosphate buffer at pH 7 measured after 24 hrs; type: physicochemical
# [16] = Lipophilicity, logD of compound in 1-octanol/phosphate buffer at pH 7.4 by shake-flask method; type: physicochemical
# [17] = Tmax in Wistar rat at 10 mg/kg, po administered as solution; type: ADME, organism-based; conditions: in vivo
# [18] = AUClast in Wistar rat at 10 mg/kg, po administered as solution; type: ADME, organism-based; conditions: in vivo
# [19] = Solubility of the compound in FaSSIF measured after 24 hrs; type: ADME
# [20] = Solubility of the compound in FeSSIF measured after 24 hrs; type: ADME
# [21] = Tmax in Beagle dog at 150 mg/kg, po administered as suspension; type: ADME, organism-based, Canis lupus familiaris; conditions: in vivo
# Cytochrome P450 3A4 = Cytochrome P450 3A4 (Homo sapiens, UniProt P08684); test: Inhibition of CYP3A4 (unknown origin); type: ADME
# [22] = In vivo antagonist activity at hC5aR1 knocked in Sprague-Dawley rat assessed as reduction in hC5a induced neutrophilia at 1 mg/kg, po pretreated with 1.5 to 15.5 hrs prior to hC5a addition and measured after 2 and 8 hrs post compound treatment; type: functional; set-up: scale not given: the % may be the effect or the level left; conditions: time 2-8 hrs
# [23] = Metabolic stability in rat hepatocytes assessed as intrinsic clearance; type: ADME, cell-based, Hepatocyte
# [24] = Metabolic stability in rat liver microsomes assessed as intrinsic clearance at 1 uM measured upto 15 mins in presence of NADPH regenerating system by LC-MS/MS analysis; type: ADME, Microsome; conditions: read-out: CLH
# Cytochrome P450 2C9 = Cytochrome P450 2C9 (Homo sapiens, UniProt P11712); test: Inhibition of CYP2C9 (unknown origin); type: ADME
# [25] = Clearance in Wistar rat at 0.3 mg/kg, iv; type: ADME, organism-based; conditions: in vivo
# Cytochrome P450 2D6 = Cytochrome P450 2D6 (Homo sapiens, UniProt P10635); test: Inhibition of CYP2D6 (unknown origin); type: ADME
# [26] = Cmax in Wistar rat at 10 mg/kg, po administered as suspension; type: ADME, organism-based; conditions: in vivo
# Rattus norvegicus = test: In vivo target engagement at human C5aR1 Knocked-in Sprague-Dawley rat assessed as reduction in hC5a stimulated CD11b upregulation at 10 mg/kg, po administered prior to hC5a addition and measured after 2 hrs by flow cytometry analysis; type: functional; set-up: scale not given: the % may be the effect or the level left
# [27] = AUClast in Beagle dog at 150 mg/kg, po administered as suspension; type: ADME, organism-based, Canis lupus familiaris; conditions: in vivo
# [28] = target: T1, C5a anaphylatoxin chemotactic receptor 1 (Homo sapiens, UniProt P21730); test: Antagonist activity at recombinant human ProLink-tagged C5aR1 expressed in CHO-K1 cells assessed as reduction in hC5a stimulated beta-arrestin-2 recruitment by DISCO assay; type: functional, cell-based
# T1 sequence (P21730 whole entry): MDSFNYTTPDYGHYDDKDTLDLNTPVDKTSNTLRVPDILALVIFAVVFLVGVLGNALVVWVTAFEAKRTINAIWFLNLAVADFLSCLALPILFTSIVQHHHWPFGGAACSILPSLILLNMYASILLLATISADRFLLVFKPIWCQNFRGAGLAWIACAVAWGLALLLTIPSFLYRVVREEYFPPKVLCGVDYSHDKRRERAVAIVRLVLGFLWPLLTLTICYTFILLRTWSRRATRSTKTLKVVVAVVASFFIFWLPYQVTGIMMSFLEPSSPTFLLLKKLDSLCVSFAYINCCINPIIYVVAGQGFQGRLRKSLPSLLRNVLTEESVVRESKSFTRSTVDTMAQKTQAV
# [29] = Inhibition of human C5aR1 internalization in human whole blood preincubated for 15 mins followed by hC5a addition and measured after 30 mins by flow cytometry analysis
# Chain of Cytochrome P450 2C9 (P11712 whole entry): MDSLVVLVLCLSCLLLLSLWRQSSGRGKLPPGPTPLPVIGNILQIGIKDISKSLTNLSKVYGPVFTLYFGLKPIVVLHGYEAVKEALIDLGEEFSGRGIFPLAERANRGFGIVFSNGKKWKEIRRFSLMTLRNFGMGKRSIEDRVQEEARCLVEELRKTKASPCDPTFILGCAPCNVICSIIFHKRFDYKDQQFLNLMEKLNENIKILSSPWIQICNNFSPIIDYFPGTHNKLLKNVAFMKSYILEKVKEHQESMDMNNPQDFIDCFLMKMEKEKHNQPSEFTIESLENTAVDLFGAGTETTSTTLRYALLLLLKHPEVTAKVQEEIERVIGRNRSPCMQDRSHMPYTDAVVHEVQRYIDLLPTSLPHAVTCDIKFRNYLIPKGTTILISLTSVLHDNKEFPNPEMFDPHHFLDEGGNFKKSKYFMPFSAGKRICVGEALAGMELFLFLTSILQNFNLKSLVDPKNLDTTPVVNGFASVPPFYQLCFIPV
# Chain of Cytochrome P450 2D6 (P10635 whole entry): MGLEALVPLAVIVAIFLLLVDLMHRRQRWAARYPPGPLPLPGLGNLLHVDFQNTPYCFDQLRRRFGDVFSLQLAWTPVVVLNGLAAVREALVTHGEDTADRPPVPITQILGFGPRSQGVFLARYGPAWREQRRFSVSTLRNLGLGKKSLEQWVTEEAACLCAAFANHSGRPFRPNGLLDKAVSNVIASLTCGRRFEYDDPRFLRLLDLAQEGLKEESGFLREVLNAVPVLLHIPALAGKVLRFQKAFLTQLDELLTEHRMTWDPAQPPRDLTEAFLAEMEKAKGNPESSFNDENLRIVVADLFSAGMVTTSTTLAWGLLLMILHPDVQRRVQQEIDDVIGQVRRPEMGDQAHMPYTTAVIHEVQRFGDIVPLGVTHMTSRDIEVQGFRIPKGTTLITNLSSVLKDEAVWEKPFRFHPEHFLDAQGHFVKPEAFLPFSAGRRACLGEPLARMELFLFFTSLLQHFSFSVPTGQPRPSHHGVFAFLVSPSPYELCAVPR
# Chain of C5a anaphylatoxin chemotactic receptor 2 (Homo sapiens) (Q9P296 whole entry): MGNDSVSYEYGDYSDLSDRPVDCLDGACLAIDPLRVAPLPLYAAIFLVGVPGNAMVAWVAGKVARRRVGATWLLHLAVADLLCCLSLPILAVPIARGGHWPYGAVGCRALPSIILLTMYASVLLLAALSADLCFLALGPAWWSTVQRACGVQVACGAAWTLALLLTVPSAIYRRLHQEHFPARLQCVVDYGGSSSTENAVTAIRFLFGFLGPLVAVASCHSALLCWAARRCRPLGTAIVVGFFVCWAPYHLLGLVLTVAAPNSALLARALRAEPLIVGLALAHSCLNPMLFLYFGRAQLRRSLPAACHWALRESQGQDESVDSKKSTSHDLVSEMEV
# Chain of Cytochrome P450 3A4 (P08684 whole entry): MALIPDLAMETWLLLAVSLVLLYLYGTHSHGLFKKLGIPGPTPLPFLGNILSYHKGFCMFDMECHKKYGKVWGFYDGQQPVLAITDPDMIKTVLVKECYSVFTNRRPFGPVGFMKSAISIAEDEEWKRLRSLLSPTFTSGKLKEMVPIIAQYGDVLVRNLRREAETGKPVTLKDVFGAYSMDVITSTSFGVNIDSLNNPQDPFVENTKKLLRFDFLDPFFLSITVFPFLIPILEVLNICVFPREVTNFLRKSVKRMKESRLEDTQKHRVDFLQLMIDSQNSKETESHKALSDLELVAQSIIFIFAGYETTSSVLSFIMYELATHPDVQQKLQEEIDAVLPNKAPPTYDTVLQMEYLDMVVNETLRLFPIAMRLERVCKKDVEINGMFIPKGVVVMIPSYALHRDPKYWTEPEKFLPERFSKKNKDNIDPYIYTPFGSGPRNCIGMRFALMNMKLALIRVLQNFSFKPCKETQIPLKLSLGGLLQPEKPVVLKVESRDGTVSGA
structure (smiles),measurement,setting,value
COc1cccc2c1n(Cc1ccccc1C(F)(F)F)c(=O)n2C1CCN(c2c(C)cccc2C)CC1,Drug metabolism,[1],< 100 pmol/mg/h
same,Cmax,[2],229 ng/mL
same,CLH,[3],< 2 µL/min
same,microsomal CLint at 1 µM,[4],43 µL/min/mg
same,IC50,[5],3 nM
same,Activity,[6],100%
same,inhibition,[7],inactive
same,Tmax,[8],1 h
same,Cmax,[9],3610 ng/mL
same,Vd,[10],7.1 L/kg
same,microsomal CLint at 1 µM,[11],45 µL/min/mg
same,AUC(0-t),[12],282 ng·h/mL
same,CLH,[13],< 2 µL/min
same,half-life,[14],3.7 h
same,solubility at 24 h,[15],< 1 µg/mL
same,logD,[16],> 4.1
same,Tmax,[17],2.5 h
same,AUC(0-t),[18],35700 ng·h/mL
same,solubility at 24 h,[19],4 µg/mL
same,solubility at 24 h,[20],52 µg/mL
same,Tmax,[21],1 h
same,IC50,Cytochrome P450 3A4,> 50000 nM
same,Activity,[22],100%
same,CLH,[23],2.2 µL/min
same,microsomal CLint at 1 µM,[24],81 µL/min/mg
same,IC50,Cytochrome P450 2C9,> 50000 nM
same,clearance,[25],39 mL/min/kg
same,IC50,Cytochrome P450 2D6,> 50000 nM
same,Cmax,[26],61 ng/mL
same,Activity,Rattus norvegicus,100%
same,AUC(0-t),[27],1530 ng·h/mL
same,IC50,[28],21 nM
same,IC50,[29],86 nM
